Data published in patent publication US20130288956A1, “COMBINED PHARMACEUTICAL COMPOSITION AS ANTIFUNGAL AGENT” (priority 2010, published 2013).
Numbered stars: 1 amine (or outer) side, 2 acyl side, 3 side chain; on linkers, the order of the positions; unused ones are H or OH. Bridge positions count the residues as written; N and C are the ends. Square brackets hold non-standard residues; d marks the D form. Peptide text beside a SMILES is read from it. * marks the point of attachment. hTyr(3S-OH,4S-OH,3'-OSO3H) = N[C@H](C(=O)O)[C@H](O)[C@@H](O)c1ccc(O)c(OS(=O)(=O)O)c1; Orn(4R-OH,5R-OH) = O=C([C@H](C[C@@H](O)[C@@H](O)N[*:3])N[*:1])[*:2]; Pro(3S-OH,4S-Me) = C[C@H]1CN[C@H](C(=O)O)[C@H]1O; X1 = CCCCCOc1ccc(-c2cc(-c3ccc(C(=O)*)cc3)no2)cc1; Gln(3R-OH) = NC(=O)C[C@@H](O)[C@H](N)C(=O)O; Hyp = O=C(O)[C@@H]1C[C@@H](O)CN1

Tests used:
C. albicans = assay: In vitro combination effects, checkerboard method by micro dilution (FIC index); format: cell-based, Candida albicans; conditions: C. albicans (20 strains); combination use with Test Compound 1
Experimental: (§1) A clinically isolated strain retained by the Medical Mycology Research Center of Chiba University (Code No. IFM) and a clinically isolated strain retained by the Life Science Research Center of Gifu University (Code No. E) were used as Candida and Aspergillus strains.
(§2) Fungus liquid obtained by static culturing at 35° C. for 48 hours in Sabouraud Dextrose liquid medium (SDB, Becton, Dickinson and Co.) was diluted with RPMI 1640 medium (Nissui Pharmaceutical Co., Ltd.) containing 0.165 M 3-(N-morpholino)propanesulfonic acid (MOPS) to prepare a fungus liquid having a fungus concentration of 1×10^3 cells/mL to 2×10^3 cells/mL.
(§3) Test Compound 1 (0.0005 μg/mL to 1.56 μg/mL) in the horizontal rows (12 wells) of a 96-well flat-bottom plate, and an antifungal agent in the form of ravuconazole (0.0015 μg/mL to 6.25 μg/mL), fluconazole (0.008 μg/mL to 32 μg/mL), voriconazole (0.0002 μg/mL to 8 μg/mL), micafungin (0.0005 μg/mL to 0.25 μg/mL), caspofungin (0.0005 μg/mL to 1 μg/mL) or amphotericin B (0.008 μg/mL to 8 μg/mL) in the vertical rows (8 wells) of the flat-bottom plate were prepared by diluting so as to blend together using RPMI 1640 medium containing 0.165 M MOPS to obtain a control group, a single Test Compound 1 group, each one of antifungal agents groups and combination groups of Test Compound 1+each one of antifungal agents.
(§4) The fungus liquids prepared in (1) were inoculated into the wells of 96-well flat-bottom plate containing 20 μL/well to 75 μL/well of the diluted test drug liquids prepared in (2) at 80 μL/well to 125 μL/well, followed by aerobically static culturing for 25 hours to 48 hours at 35° C.
(§5) Combination effects of Test Compound 1 and the antifungal agents were measured with the checkerboard method by micro dilution.
(§6) Interaction between both drugs was assessed by calculating the FIC index using the calculation formula indicated below.
(§7) The FIC index was calculated for each combination of antifungal agent concentrations that inhibited fungal growth, and the minimum value of the resulting FIC index was used as a combination FIC index.
(§8) A combination FIC index of 0.5 or less was evaluated as indicating synergistic action, that of 0.5 to 1 or less was evaluated as indicating additive action, and that of 1 to 4 or less was evaluated as indicating indifferent action.
(§9) FIC Index=(MIC value of drug A during combination use/MIC value of drug A when used alone)+(MIC value of drug B during combination use/MIC value of drug B when used alone) (Calculation Formula)

C. tropicalis = assay: as above; format: cell-based, Candida tropicalis; conditions: C. tropicalis (10 strains); combination use with Test Compound 1
Experimental: as §1, §2, §3, §4, §5, §6, §7, §8, §9

[1] = test system: A. fumigatus strain IFM52108; assay: A. fumigatus respiratory tract infection model; format: in vivo, mice
Experimental: (§10) Female DBA/2N mice (age 8 weeks, Charles River Laboratories Japan, Inc.) were subcutaneously administered 200 mg/kg of 5-fluorouracil 5 or 6 days prior to infection in order to put the mice into a compromised state.
(§11) A. fumigatus strain IFM52108 and A. flavus strain IFM50915 were used.
A liquid containing spores of A. fumigatus strain IFM52108 stored at −80° C. was applied to Potato Dextrose agar medium (PDA, Eiken Chemical Co., Ltd.) followed by static culturing for 5 to 7 days at 35° C. and suspending in sterile physiological saline containing 0.05% Tween 80.
The number of spores was counted using a hemocytometer, and the liquid was diluted with sterile physiological saline containing 0.05% Tween 80 to a concentration of 1.2×10^6 cells/mL to 2.5×10^6 cells/mL to obtain an inoculation fungus liquid.
(§12) 50 μl of inoculation fungus liquid were inoculated into the nasal cavities of 9-week-old mice at 0.3×10^5 cells/mouse to 1.25×10^5 cells/mouse under Ketalar anesthesia.
(§13) 0.1 mL to 0.2 mL of each drug solution (dissolved in sterile physiological saline or 5% glucose solution, or dissolved in sterile physiological saline or 5% glucose solution containing 6.5% dimethylsulfoxide and 3.5% Tween 80) was administered to the individual and combination dose groups either into the peritoneal cavity or into the stomach using a gastric cannula corresponding to the administration route of the drug for 3 to 4 days at the rate of 1 to 2 times per day starting 0.5 hours to 1 hour after inoculation of fungus.
(§14) There were 5 to 9 animals in each group.
(§15) Infection protection results were assessed on survival rate 14 days after infection.

C. glabrata = assay: In vitro combination effects, checkerboard method by micro dilution (FIC index); format: cell-based, Candida glabrata; conditions: C. glabrata (10 strains); combination use with Test Compound 1
Experimental: as §1, §2, §3, §4, §5, §6, §7, §8, §9

[2] = test system: A. flavus strain IFM50915; assay: A. flavus respiratory tract infection model; format: in vivo, mice
Experimental: as §10, §11
A liquid containing spores of A. flavus strain IFM50915 stored at −80° C. was thawed, and the number of spores was counted using a hemocytometer followed by diluting with sterile physiological saline containing 0.05% Tween 80 to a concentration of 0.6×10^6 cells/mL to 1.0×10^6 cells/mL to obtain an inoculation fungus liquid.
as §12, §13, §14, §15

A. fumigatus = assay: In vitro combination effects, checkerboard method by micro dilution (FIC index); format: cell-based, Aspergillus fumigatus; conditions: A. fumigatus (18 strains)
Experimental: as §1
(§16) An Aspergillus strain stored frozen at −80° C., or spores obtained by static culturing at 35° C. for 1 week in Potato Dextrose agar medium (PDA, Eiken Chemical Co., Ltd.) followed by scraping from the container with a metal loop, was diluted with RPMI 1640 medium containing 0.165 M MOPS to prepare a fungus liquid having a fungus concentration of 0.75×10^4 cells/mL to 1.33×10^4 cells/mL.
as §3, §4, §5, §6, §7, §8, §9

A. flavus = assay: as above; format: cell-based, Aspergillus flavus; conditions: A. flavus (4 strains), Table 1
Experimental: as §1, §16, §3, §4, §5, §6, §7, §8, §9

[3] = combination with the test compound of the invention

## CCCCCOc1ccc(-c2cc(-c3ccc(C(=O)N[C@H]4C[C@@H](O)[C@@H](O)NC(=O)[C@@H]5[C@@H](O)[C@@H](C)CN5C(=O)[C@H]([C@H](O)CC(N)=O)NC(=O)[C@H]([C@H](O)[C@@H](O)c5ccc(O)c(OS(=O)(=O)O)c5)NC(=O)[C@@H]5C[C@@H](O)CN5C(=O)[C@H]([C@@H](C)O)NC4=O)cc3)no2)cc1 [Micafungin, micafungin] (X1-[Orn(4R-OH,5R-OH)]T[Hyp][hTyr(3S-OH,4S-OH,3'-OSO3H)][Gln(3R-OH)][Pro(3S-OH,4S-Me)]; lactam 1-C)
C. albicans
  Ratio indicating Additive effect of combination use with Test Compound 1: 80%
  Ratio indicating Antagonistic effect of combination use with Test Compound 1: 0%
  Ratio indicating Indifferent effect of combination use with Test Compound 1: 20%
  Ratio indicating Synergistic effect of combination use with Test Compound 1: 0%
C. tropicalis
  Ratio indicating Additive effect of combination use with Test Compound 1: 100%
  Ratio indicating Antagonistic effect of combination use with Test Compound 1: 0%
  Ratio indicating Indifferent effect of combination use with Test Compound 1: 0%
  Ratio indicating Synergistic effect of combination use with Test Compound 1: 0%
[1]; MCFG 1 mg/kg
  14-day survival rate: 0%
[1]; MCFG 2 mg/kg
  14-day survival rate: 40%
[1]; [3]
  Combination effects in mouse Aspergillus fumigatus infection model: synergistic combination effects
C. glabrata
  Ratio indicating Additive effect of combination use with Test Compound 1: 70%
  Ratio indicating Antagonistic effect of combination use with Test Compound 1: 0%
  Ratio indicating Indifferent effect of combination use with Test Compound 1: 30%
  Ratio indicating Synergistic effect of combination use with Test Compound 1: 0%
[2]; MCFG 0.25 mg/kg, Table 5
  14-day survival rate: 0%
[2]; MCFG 0.5 mg/kg, Table 4
  14-day survival rate: 50%
[2]; MCFG 0.5 mg/kg, Table 5
  14-day survival rate: 33.3%
[2]; [3]
  Combined effects in mouse Aspergillus flavus infection model: synergistic combined effects
A. fumigatus
  Ratio indicating Additive effect of combination use with Test Compound 1: 0%
  Ratio indicating Antagonistic effect of combination use with Test Compound 1: 0%
  Ratio indicating Indifferent effect of combination use with Test Compound 1: 0%
  Ratio indicating Synergistic effect of combination use with Test Compound 1: 100%
A. flavus
  Ratio indicating Additive effect of combination use with Test Compound 1: 0%
  Ratio indicating Antagonistic effect of combination use with Test Compound 1: 0%
  Ratio indicating Indifferent effect of combination use with Test Compound 1: 0%
  Ratio indicating Synergistic effect of combination use with Test Compound 1: 100%
